Assay results reported in PubChem BioAssay (NCI).
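Five concentrations, 48 hours, 96-well plates. The concentration for 50% growth inhibition is given as GI50. TGI is the concentration that stops growth completely.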

Legend:
Test in all cases: inhibition of tumour cell growth, NCI panel, 48 h
[1] = tested on: HT29 colon
[2] = tested on: COLO 205 colon
[3] = tested on: UACC-62 melanoma
[4] = tested on: CAKI-1 renal
[5] = tested on: SK-MEL-2 melanoma
[6] = tested on: SF-539 CNS
[7] = tested on: HOP-92 NSCLC
[8] = tested on: SNB-19 CNS
[9] = tested on: MOLT-4 leukemia
[10] = tested on: MDA-MB-435

| Compound | TGI [1] [µM] | TGI [2] [µM] | TGI [3] [µM] | TGI [4] [µM] | TGI [5] [µM] | TGI [6] [µM] | TGI [7] [µM] | TGI [8] [µM] | TGI [9] [µM] | GI50 [1] [µM] | GI50 [2] [µM] | GI50 [10] [µM] | TGI [10] [µM] | GI50 [3] [µM] | GI50 [8] [µM] | GI50 [4] [µM] | GI50 [5] [µM] | GI50 [6] [µM] | GI50 [9] [µM] | GI50 [7] [µM] |
| --- | --- | --- | --- | --- | --- | --- | --- | --- | --- | --- | --- | --- | --- | --- | --- | --- | --- | --- | --- | --- |
| Nc1nc2ncn(CC(O)COC(=O)c3ccccc3)c2c(=O)[nH]1 (stereo not given) | > 100 | > 100 | > 100 | > 100 | > 100 | > 100 | > 100 | – | – | – | – | – | – | – | – | – | – | – | – | – |
| NC(=O)c1ncn(Cc2ccccc2)c1CNC(N)=S | > 100 | > 100 | > 100 | – | – | > 100 | – | > 100 | > 100 | – | – | – | – | – | – | – | – | – | – | – |
| Cn1cc(C2=C(c3c(S(C)=O)n(C)c4ccccc34)C(=O)NC2=O)c2ccccc21 (stereo not given) | > 25 | > 18.6 | > 25 | > 25 | > 25 | > 20.1 | – | > 25 | > 25 | 7.51 | 5.96 | 2.68 | 9.14 | 14.2 | 25 | 6.04 | 7.88 | 6.35 | 9.4 | – |
| CCCCCCCCCCCC(=O)OC(COC(N)=O)COc1ccc(Cl)cc1 (stereo not given) | 40.6 | 37.5 | 41.3 | 44.3 | 74.4 | 66.4 | – | 83 | 44.3 | – | – | – | – | – | – | – | – | – | – | – |
| CCCCCCSc1nc(COC(=O)NC)c(COC(=O)NC)n1C | > 100 | > 100 | > 100 | > 100 | > 100 | > 100 | – | > 100 | > 100 | – | – | – | > 100 | – | – | – | – | – | – | – |
| CC1CC(c2ccc(Cl)c(Cl)c2)=Nc2ccccc2S1 (stereo not given) | > 100 | > 100 | > 100 | > 100 | – | > 100 | > 100 | > 100 | > 100 | – | – | – | – | – | – | – | – | – | – | – |
| C#Cc1ccc(-n2c(/C=C/c3ccc4ccccc4c3)nc3ncccc3c2=O)cc1 | > 100 | – | > 100 | > 100 | 6.2 | > 100 | 6.89 | – | > 100 | 3.26 | – | 2.06 | > 100 | 2.49 | – | 2.98 | 2.41 | 2.91 | 2 | 1.63 |
| CCCc1n(Cc2ccc3ccccc3n2)cc[n+]1Cc1ccc2ccccc2n1 | 11.4 | 2.21 | 6.19 | – | 5.68 | 13.4 | 4.18 | 13.2 | 16.5 | 1.61 | 0.633 | 1.13 | 11.9 | 1.12 | 1.13 | – | 1.52 | 2.14 | 2.89 | 0.56 |
| CN1CCc2cc3c4cc2C1Cc1ccc(cc1)Oc1cc(ccc1O)CC1c2c(cc(O)c(c2O4)O3)CCN1C (stereo not given) | 9.42 | 21.9 | 3.76 | 34.8 | 3.18 | 3.21 | 8.13 | 7.38 | 10.2 | – | – | – | – | – | – | – | – | – | – | – |
| O=C(CSc1ncc(-c2ccccc2)n1-c1ccccc1)Nc1ccc(-c2nc3ccccc3s2)cc1 | – | > 100 | > 100 | > 100 | 73.2 | > 100 | 83.1 | > 100 | – | – | > 100 | – | – | 22.6 | 15.1 | 4.21 | 12 | 6.25 | – | 22.6 |
| NCC1(N2CCOCC2)C2CCCC21CNc1ccccc1 (stereo not given) | > 100 | > 100 | > 100 | > 100 | – | > 100 | > 100 | > 100 | > 100 | – | – | – | – | – | – | – | – | – | – | – |
| CCCCC(C(=O)CCC(=O)Nc1ccc(Cl)cc1)C(=O)C(C)C (stereo not given) | > 100 | > 100 | > 100 | > 100 | > 100 | > 100 | > 100 | > 100 | > 100 | – | – | – | – | – | – | – | – | – | – | – |
| CN1CCN(c2ccc(Nc3ncc4cc5n(c4n3)C3(CCCCC3)CNC5=O)nc2)CC1 | 19.2 | 11.3 | 19.8 | 14.3 | 21.8 | 6.72 | 18.2 | – | 3.58 | 0.397 | 0.0632 | 2.02 | 24 | 2.94 | – | 0.397 | 4.49 | 2.29 | 0.279 | 1.27 |
| COC(=O)C1(O)c2ccccc2N=C2C1CCN2C (stereo not given) | > 100 | > 100 | > 100 | > 100 | > 100 | > 100 | > 100 | > 100 | > 100 | – | – | – | – | – | – | – | – | – | – | – |
| COC(CC1(OC)OC(=O)C=C1N)OC (stereo not given) | > 100 | > 100 | > 100 | – | > 100 | > 100 | > 100 | > 100 | > 100 | – | – | – | – | – | – | – | – | – | – | – |
| CNCCN(C)Cc1cn[nH]c1-c1ccc(OC2CC(OCCC3CCOCC3)C2)cc1 (stereo not given) | > 100 | 85.7 | > 100 | – | > 100 | > 100 | > 50.8 | > 100 | > 100 | 38.6 | 21.2 | > 100 | > 100 | 39.1 | > 100 | – | > 100 | > 100 | > 80.2 | 1.43 |
| Cc1ccc2nc3c(C)cc(=O)cc-3sc2c1 | > 100 | 72.2 | 29 | 37.4 | 52.7 | 42.6 | 76.7 | > 100 | 38.9 | – | – | – | – | – | – | – | – | – | – | – |
| COc1ccc2c(c1)N(CCO)C1=C(C(=O)OC1)C2c1ccc(OC)c(OC)c1 (stereo not given) | 7.51 | 5.93 | > 100 | > 100 | 11.3 | – | – | > 100 | > 100 | 2.73 | 2.53 | 0.407 | 2.13 | 2.13 | 4.54 | 3.05 | 2.66 | – | 4.75 | – |
| Cc1[nH]n(-c2cccc(Cl)c2)c(=O)c1/C=C1\C=c2ccccc2=CC1=O | > 100 | > 100 | > 100 | > 100 | 70.2 | > 100 | – | > 100 | > 100 | > 100 | > 100 | > 100 | > 100 | 39.8 | 45.7 | > 100 | 21.8 | – | > 100 | – |
